Results taken from PubChem BioAssay AID435004 (Broad Institute, 2010).
pEC50: −log10 of the molar value. Inconclusive results are not listed. Calls of active or inactive are those of the source.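 Rule for the calls: active = EC50 at most a set number of log units above the top tested dose; inconclusive = flat curve fit with activity between 30% and 70%, or poor fit; inactive = EC50 further above the top dose than that.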

tested on: NIH3T3-HGL HSF1 luciferase reporter, MG132, 8 h; experiment: enhancement of HSF1-driven luciferase signal – cell-based, NIH3T3, luminescence, dose retest, confirmation (AID 435004)

Q: Which EC50 does the source give for CC(C)CCN=CC1=C(O)CC(c2ccccc2)CC1=O (stereo not drawn) here?
A: > 26 µM (inactive)

Q: O=C1CC(c2ccccc2Cl)CC(O)=C1C=Nc1ccccc1 (stereo not drawn) was tested. Which pEC50 did it give?
A: 5.33

Q: C#CCOCCOCCOCCNc1nc(N2CCN(C(=O)[C@H](Cc3cc4ccccc4[nH]3)n3cc(C(N)CC(C)C)nn3)CC2)nc(N2CCN(C(=O)[C@H](CCC(=O)O)n3cc(C(N)[C@H](C)CC)nn3)CC2)n1 (stereo partly drawn) was tested. Which EC50 did it give?
A: > 26 µM (inactive)
